# According to patent US10598667B2, “Functional illumination in living cells” (The Regents of the University of California, priority 2013, dated 2020):
# “Also recorded” adds a separate entry of the source. Where no end group is shown, it is not given here. [ ]: non-standard residue; d: D form. pS = N[C@@H](COP(=O)(O)O)C(=O)O
# Experiments:
# [1] = Fluorescent activation of MG by peptide compared with LTA2 and LTA10; format: binding; conditions: preliminary data
# Description: We expect to generate a toolbox of functional illuminant peptides that can be used in a broad range of biological applications. Translating the peptides identified in aim 1 to highly sensitive and specific functional illuminants in living cells, however, is more challenging. In this proposal, we will characterize the utility of these peptides in live cells with an emphasis on phosphorylation (Aim 2) and histone epigenetics (Aim 3). As indicated above, we plan to design and synthesize a series of dyes candidates for GESI development. We are cognizant that many organic dyes bind non-specifically to many proteins, but usually at rather high concentration (mM). […] It is also important to realize that not all binding events will activate fluorescence. […] This works in our favor as not all non-specific binding (if there is any) will lead to activation of the dyes. One concern that the previous reviewers have was the large number of Trp in our initial leads (e.g. LTA2 and LTA10). As shown in the preliminary data, many strong activators for MG have low number of Trp. For example, fluorescent activation of MG by LRRAS(P)LFYGMWYPST (SEQ ID NO:227), with only 1 Trp, is 4-5× brighter than that of LTA2 and LTA10.
# [2] = Histone H2 tail OBOC library screening with DMHBI; format: binding; conditions: library peptide fused to N-terminal H2
# Protocol: An OBOC combinatorial library was prepared for the development of GESIs for probing histone H2 tail. The library design is shown in FIG. 20C, wherein X represents all 20 eukaryotic amino acids except for cysteine; all possible post-translational modification states of Ser-1 and Lys-5 are incorporated; and additional Xs at the N-terminus of the histone tail will provide necessary capturing residues for fluorescent dyes.
# [3] = Sequential screening of PDMS affixed OBOC bead array with three dyes; format: binding; conditions: 100 μM dye in PBS, three dyes incubated sequentially on the same bead array
# Protocol: Silicon Elastomer Base was mixed completely with Silicone Elastomer Curing Agent at ratio 10:1 in volume and the solution was kept in vacuum container for 15 to 20 minutes to eliminate the gas bubbles formed during the mixing process. After the removal of all residual bubbles, approximately 0.5-1 mL of PDMS solution was added into the bottom of a 60 mm culture dish. The dish was then spun on a single wafer spin processor (Laurell Technologies Corporation®, model WS-6505-6NPP/Lite) to evenly distribute the solution over the plates, at a speed of 4000 rpm for 30 s. A 5 μm layer of PDMS was formed on the bottom of dish and was cured at 80° C. for 5 min or at room temperature for 24 hrs to allow for beads immobilization. Knowing that the PDMS coating was about 5 μm thick and the radius of bead was around 45 μm, the percentage of free bead surface area was estimated by the formula of [1-2πrh/4πr^2]×100% (h=thickness of PDMS layer; r=radius of bead) to be approximately 95%. The library beads resuspended in 70% ethanol solution were first randomly placed on the surface of a glass plate that was 10% smaller than the dish used in the experiment. After the ethanol evaporated, a syringe needle was used to adjust the dry beads to evenly redistribute beads on the glass surface. Then the dish was inverted and the PDMS layer was pressed down onto the glass plate with beads. The library beads were embedded partly inside the PDMS layer.
# (§1) Dye solutions were prepared in PBS to a 100 μM final concentration and 5 mL of each dye solution were added into the 60 mm dish with beads. Three dyes were tested sequentially. The dish was kept swirling at 60 rpm on the rotator. The dye binding was monitored for 90 minutes, and then the dye solution was removed from the dishes and PBS was added to rinse the beads on the bottom to remove the color dye. The PBS solution was changed every 30 min and the dish was always swirled as above. The beads color change was also observed and recorded at certain time interval during the whole wash process to collect data of color dissociation. Before adding the next dye solution, beads were washed with 70% ethanol to completely remove residual dye and were rinsed with PBS solution three times afterwards.
# (§2) A representative positive bead for each color was selected for the color binding and dissociation study. A series of images were taken at different time points during the binding and washing process. From the images taken, regions of interest (ROI) with the same size were picked up from the color beads and colorless control beads. The value from the control bead was subtracted from the color bead to get quantitated color value for each single color bead. The measure of the color intensity for each color dye was performed using the Kodak Image Station 2000MM.
# The PDMS affixed bead array was incubated with three different dyes sequentially. […] Eleven beads were selected for further analysis based on their characteristic binding profiles (FIG. 2). […] The amino acid sequences of the peptides bound to the beads were determined (Table 1).
# [4] = Real time association and dissociation of dye to bead (color intensity); format: binding
# Protocol: as §1, §2
# (§3) With the PDMS affixed bead method, it is possible to dynamically observe the peptide-dye interaction on each individual immobilized bead in real time. To further characterize the binding profile for each of the target/sequence interactions, beads #1, #4 and #10 were selected for binding and dissociation study with each respective target dye, by measuring the intensity of the resulting color accumulation on the bead surface at different time points. The values obtained for color intensity across progressing time points were plotted and the profiles for the three dye/bead interactions were compared. The association and dissociation rate of each organic dye to its respective binding peptide was evaluated. […]
# [5] = Fluorescence titration of peptide in solution with MG, 2 mM Ca2+, 650 nm; format: binding
# Protocol: (§4) Two peptides that can activate MG with or without calcium sensitivity were selected for further characterization. A solution form of the two peptides were synthesized and titrated with MG in the presence of 2 mM Ca^2+. Fluorescent signal at 650 nm was measured. […] Computational modeling confirmed stably folded structure of peptide 12 upon MG binding, preventing intramolecular motions of MG (FIG. 8B, FIG. 10A, B). […] The immobilized peptides on TentaGel beads were then titrated with an increasing amount of MG in the presence and absence of 2 mM Ca^2+. Fluorescent emission at 650 nm by each individual bead was measured. […] Computational modeling further confirmed that stably folded structure of peptide 2 only forms upon calcium binding (FIG. 11B).
# [6] = Titration of immobilized peptides on TentaGel beads with MG in presence and absence of 2 mM Ca2+; format: binding; conditions: presence vs absence of 2 mM Ca2+, peptide on bead
# Protocol: as §4
# HEK293 cells = assay: Dual-color confocal imaging of Cerulean-linker-peptide fusion proteins with MG and acetylcholine; format: cell-based
# Description: To evaluate the utility of lead peptides in mammalian cells, individual peptide tags were fused to the C-terminus of a cyan fluorescence protein (Cerulean 3) anchored on the plasma membrane. An amino acid linker (GGSGSGGS: SEQ ID NO:33) was placed between C-terminus of Cerulean and the peptide to increase the solubility and stability of the recombinant fusion proteins. Goals for the design of fusion proteins are two-folds. First, the labeling ability of peptides can be readily detected by co-localization of both cyan and infrared fluorescence. Second, the calcium sensing ability of peptide can be tested by taking advantage of endogenous acetylcholine (Ach) receptors; Ach stimulus leads to transient calcium influx in cytosol, which may lead to increased MG fluorescence. Given the limited membrane permeability of MG, a relative high concentration of MG (5×10^−7 M) was used for the imaging assay. 48 hrs post-transfection, time-lapse, dual-color confocal fluorescence microscopy images were taken upon MG incubation, followed by Ach addition. […] The fluorescence intensity reached plateau within seconds and remains stable during the 10 mins period of imaging window. In contrast, no apparent infrared fluorescence was observed when membrane-anchored Cerulean control (without grafted peptide) was expressed upon MG addition (FIG. 15A). […]
# [7] = MG binding of peptide ligands from screening and their derivatives; set-up: key to MG binding: −: no binding; +: weak binding; ++: mild binding; +++: strong binding; ++++: very strong binding; conditions: 11 hour incubation with 5 μM MG in PBS buffer (pH 7.4)
# [8] = Real time association and dissociation of dye to bead (color intensity); format: binding; remark: listed apart in the source
# Protocol: as §1, §2, §3
substance,measurement,setting,value
LRRAS(P)LFYGMWYPST (LRRA[pS]LFYGMWYPST),"Fluorescent activation of MG, brightness relative to LTA2 and LTA10",[1],4-5 ×
VWDGIRS(P)GRGK(Ac) (VWDGIR[pS]GRGK(Ac)),DMHBI activation,[2],DMHBI activating
DPSWPNS(P)GRGK(Ac) (DPSWPN[pS]GRGK(Ac)),DMHBI activation,[2],DMHBI activating
CHTHILC (not fully specified (bridges); cysteine pairing not given here; also: bead-bound) [Bead #4],Dye binding,[3]; listed as # 4,Bromocresol
same,Dye binding,[3]; listed as #4,only bind to bromocresol purple; also recorded: bind only to bromocresol purple
same,Time to maximum color binding,[4]; bead incubated with bromocresol purple,around 75 minutes
same,Time until color disappeared (dissociation),[4]; washing,≤ 72 h
DWWWDGFERLEE (synthetic genetically encoded small illuminant (GESI) malachite green (MG) binding Peptide 2),Binding characteristics in solution studies,[5],strong binding characteristics
same,Increase of MG binding affinity by calcium,[6],about 10 fold
same,Increase of MG binding affinity by calcium,[6]; listed as peptide 2,10 fold
same,Sensitivity to calcium upon acetylcholine stimulation,HEK293 cells,showed sensitivity to calcium
same,Increase of MG fluorescence intensity upon Ach addition,HEK293 cells; living cells,4 fold
same,MG binding,[7],++
GLFDQES(P)GRGK (GLFDQE[pS]GRGK),DMHBI activation,[2],DMHBI activating
CKWILPC (not fully specified (bridges); cysteine pairing not given here; also: bead-bound) [Bead #10],Dye binding,[3]; listed as #10,bind to both indigo carmine and bromocresol purple
same,Time until colorization was seen,[8]; bead incubated with indigo carmine,within five minutes
same,Time until color completely gone (dissociation),[8]; washing with PBS,20 min
same,Binding and dissociation rates compared with indigo carmine,[4]; bromocresol purple,much slower
TRPSMWS(P)GRGK(Ac) (TRPSMW[pS]GRGK(Ac)),DMHBI activation,[2],DMHBI activating
CNSPDIC (not fully specified (bridges); cysteine pairing not given here; also: bead-bound) [Bead #1],Dye binding,[3]; listed as # 1,Malachite green
same,Dye binding,[3]; listed as #1,only bind to malachite green; also recorded: bind only to malachite green
same,Time after which color had not completely diminished (dissociation),[8]; after washing,> 72 h
